Experimental findings from patent publication US20240269304A1, “BCL-XL INHIBITOR ANTIBODY-DRUG CONJUGATES AND METHODS OF USE THEREOF” (Novartis AG, priority 2020, published 2024) are described below.

One assay has as its system DND-41 cells. Description: CellTiterGlo (CTG) cell viability, 72 h, DND-41 (Example 8). Format: cell-based. As to the method: DND-41 cells were cultivated in RPMI supplemented with 10% heat inactivated fetal bovine serum, penicillin (100 IU/ml), streptomycin (100 μg/ml) and L-glutamine (2 mM). Cell lines were cultured at 37° C. in a humidified atmosphere containing 5% CO2. […] Effects of payloads or ADCs on cell viability were assessed after 3 days of incubation at 37° C./5% CO2 by quantification of cellular ATP levels using CellTiterGlo at 75 μL reagent/well. All the conditions were tested in triplicates. Luminescence was quantified on a multipurpose plate reader. IC50s were calculated using standard four-parametric curve fitting.

In a further assay the test system is H1650 cells. In words: CellTiterGlo (CTG) cell viability, 3D, 120 h, H1650 (Example 8). Format: cell-based, human. Particulars: Homo sapiens, NCI-H1650, H1650 3D. (In ATP-based viability assays light output follows the ATP content of the culture.)
For another assay, the system named is ALL-SIL cells. Description: CellTiterGlo (CTG) cell viability, 72 h, ALL-SIL (Example 8). It is filed as cell-based. As to the method: ALL-SIL cells were cultivated in RPMI supplemented with 20% heat inactivated fetal bovine serum, penicillin (100 IU/ml), streptomycin (100 μg/ml) and L-glutamine (2 mM). Cell lines were cultured at 37° C. in a humidified atmosphere containing 5% CO2. Cells were seeded in 96 well clear bottom plates (96 well clear-bottom, white, Corning reference 3903) and exposed to the payloads or ADCs for 72 h (serially diluted; 9 concentrations each, triplicates). Effects of payloads or ADCs on cell viability were assessed after 3 days of incubation at 37° C./5% CO2 by quantification of cellular ATP levels using CellTiterGlo at 75 μL reagent/well. All the conditions were tested in triplicates. Luminescence was quantified on a multipurpose plate reader. IC50s were calculated using standard four-parametric curve fitting. […] Each experiment was performed at least twice, with results being reproducible.

The mark [1] stands for this setting: DND41, experiment n1, read-out: DND41 CTG 72 h IC50 nM n1.
Setting [2] is: DND41, experiment n2, read-out: DND41 CTG 72 h IC50 nM n2.
[3] abbreviates: DND41, mean of n1 and n2, read-out: DND41 CTG 72 h IC50 nM Mean of n1 and n2.
[4] abbreviates: experiment n1, read-out: H1650 3D CTG IC50 n1.
Where [5] appears, read: experiment n2, read-out: H1650 3D CTG IC50 n2.
The mark [6] stands for this setting: mean of n1 and n2, read-out: H1650 3D CTG IC50 Mean of n1 and n2.
Where [7] appears, read: experiment n1, read-out: ALLSIL CTG 72 h IC50 nM n1.
The mark [8] stands for this setting: experiment n2, read-out: ALLSIL CTG 72 h IC50 nM n2.
Setting [9] is: mean of n1 and n2, read-out: ALLSIL CTG 72 h IC50 nM Mean of n1 and n2.

The structures appear in SMILES notation. Like-named read-outs stand apart in the source and are kept apart here.

As for `Cc1c(Nc2nc3ccccc3s2)nnc2c1CCCN2c1nc(C(=O)O)c(CCCOc2ccc(C#CC(C)N3CCN(C)CC3)cc2F)s1` (stereo not drawn) [P8, 2-[3-(1,3-Benzothiazol-2-ylamino)-4-methyl-6,7-dihydro-5H-pyrido[2,3-c]pyridazin-8-yl]-5-[3-[2-fluoro-4-[3-(4-methylpiperazin-1-yl)but-1-ynyl]phenoxy]propyl]thiazole-4-carboxylic acid], the IC50 (usually the concentration that gives 50% inhibition) was determined as 0.69 nM in the assay on DND-41 cells (setting [1]); 0.41 nM in the assay on DND-41 cells (setting [2]); 0.55 nM in the assay with DND-41 cells (setting [3]); 0.7 nM with H1650 cells (setting [4]); 1.8 nM with H1650 cells (setting [5]); 1.25 nM with H1650 cells (setting [6]). Also, the concentration for half-maximal inhibition (IC50) is 0.02 nM in the assay with ALL-SIL cells (setting [7]), 0.03 nM in the assay with ALL-SIL cells (setting [8]) and 0.02 nM in the assay with ALL-SIL cells (setting [9]).
With `Cc1c(Nc2nc3ccccc3s2)nnc2c1CCCN2c1ccc(-c2cnn(C[C@]34C[C@]5(C)C[C@](C)(C3)C[C@@](OCCNCC[C@H](O)CO)(C5)C4)c2C)c(C(=O)O)n1` [P19, 6-{3-[(1,3-benzothiazol-2-yl)amino]-4-methyl-6,7-dihydropyrido[2,3-c]pyridazin-8(5H)-yl}-3-(1-{[3-(2-{[(3S)-3,4-dihydroxybutyl]amino}ethoxy)-5,7-dimethyladamantan-1-yl]methyl}-5-methyl-1H-pyrazol-4-yl)pyridine-2-carboxylic acid], the IC50 in the assay with DND-41 cells (setting [1]) came out at 10.8 nM; in the assay on DND-41 cells (setting [2]) it was 7.2 nM; in the assay on DND-41 cells (setting [3]), 9 nM; with H1650 cells (setting [4]), 2.89 nM; in the assay with H1650 cells (setting [5]), 1.43 nM; in the assay on H1650 cells (setting [6]), 2.16 nM. The values for the IC50 in the assay on ALL-SIL cells (setting [7]), in the assay on ALL-SIL cells (setting [8]) and with ALL-SIL cells (setting [9]) were 4.02 nM, 3.5 nM and 3.76 nM, respectively.
For `CNCC#Cc1ccc(OCCCc2sc(N(CCC(O)CO)c3cc(C)c(Nc4nc5ccccc5s4)nn3)nc2C(=O)O)c(F)c1` (stereo not drawn) [P44, 2-[[6-(1,3-Benzothiazol-2-ylamino)-5-methyl-pyridazin-3-yl]-(3,4-dihydroxybutyl)amino]-5-[3-[2-fluoro-4-[3-(methylamino)prop-1-ynyl]phenoxy]propyl]thiazole-4-carboxylic acid], the half-inhibitory concentration (IC50) in the assay with DND-41 cells (setting [1]) came to 36 nM; in the assay with DND-41 cells (setting [2]) it was 33.6 nM; in the assay on DND-41 cells (setting [3]), 34.8 nM; in the assay with ALL-SIL cells (setting [7]), 4.64 nM; with ALL-SIL cells (setting [8]) it was 3.14 nM; in the assay on ALL-SIL cells (setting [9]), 3.89 nM.
For the compound `CNCC#Cc1ccc(OCCCc2sc(N(CCCO)c3cc(C)c(Nc4nc5ccccc5s4)nn3)nc2C(=O)O)c(F)c1` [P45, 2-[[6-(1,3-Benzothiazol-2-ylamino)-5-methyl-pyridazin-3-yl]-(3-hydroxypropyl)amino]-5-[3-[2-fluoro-4-[3-(methylamino)prop-1-ynyl]phenoxy]propyl]thiazole-4-carboxylic acid], the IC50 is 17 nM with DND-41 cells (setting [1]); 16.8 nM in the assay with DND-41 cells (setting [2]); 16.9 nM in the assay with DND-41 cells (setting [3]); 3.11 nM with ALL-SIL cells (setting [7]); 4.01 nM in the assay with ALL-SIL cells (setting [8]); 3.56 nM with ALL-SIL cells (setting [9]).
Regarding `Cc1c(Nc2nc3ccccc3s2)nnc2c1CCCN2c1nc(C(=O)O)c(CCCOc2ccc(C#CCN(C)C)cc2F)s1` [P1, 2-[3-(1,3-Benzothiazol-2-ylamino)-4-methyl-6,7-dihydro-5H-pyrido[2,3-c]pyridazin-8-yl]-5-[3-[4-[3-(dimethylamino)prop-1-ynyl]-2-fluoro-phenoxy]propyl]thiazole-4-carboxylic acid], the half-inhibitory concentration (IC50) was found to be 1.3 nM in the assay on DND-41 cells (setting [1]); 0.26 nM in the assay with DND-41 cells (setting [2]); 0.78 nM with DND-41 cells (setting [3]); 0.51 nM in the assay on H1650 cells (setting [4]); 1.28 nM in the assay with H1650 cells (setting [5]); 0.9 nM with H1650 cells (setting [6]). In addition, the figures for the concentration for half-maximal inhibition (IC50) with ALL-SIL cells (setting [7]), in the assay with ALL-SIL cells (setting [8]) and in the assay with ALL-SIL cells (setting [9]) were 0.38 nM, 0.14 nM and 0.26 nM, respectively.
As to `Cc1c(Nc2nc3ccccc3s2)nnc2c1CCCN2c1ccc(-c2cnn(C[C@]34C[C@]5(C)C[C@](C)(C3)C[C@@](OCCNCCCCO)(C5)C4)c2C)c(C(=O)O)n1` [P22, 6-[3-(1,3-benzothiazol-2-ylamino)-4-methyl-6,7-dihydro-5H-pyrido[2,3-c]pyridazin-8-yl]-3-[1-[[3-[2-(4-hydroxybutylamino)ethoxy]-5,7-dimethyl-1-adamantyl]methyl]-5-methyl-pyrazol-4-yl]pyridine-2-carboxylic acid], the half-inhibitory concentration (IC50) came out at 0.45 nM in the assay with DND-41 cells (setting [1]); 0.26 nM in the assay on DND-41 cells (setting [2]); 0.36 nM in the assay on DND-41 cells (setting [3]); 0.77 nM in the assay on H1650 cells (setting [4]); 0.79 nM with H1650 cells (setting [5]); 0.78 nM in the assay on H1650 cells (setting [6]). In addition, the IC50 was found to be 0.26 nM in the assay with ALL-SIL cells (setting [7]), 0.5 nM in the assay on ALL-SIL cells (setting [8]) and 0.38 nM in the assay with ALL-SIL cells (setting [9]).
On to `Cc1c(Nc2nc3ccccc3s2)nnc2c1CCCN2c1nc(C(=O)O)c(CCCOc2ccc(C#CCN3CCN(C)CC3)cc2F)s1` [P10, 2-[3-(1,3-Benzothiazol-2-ylamino)-4-methyl-6,7-dihydro-5H-pyrido[2,3-c]pyridazin-8-yl]-5-[3-[2-fluoro-4-[3-(4-methylpiperazin-1-yl)prop-1-ynyl]phenoxy]propyl] thiazole-4-carboxylic acid], for which the IC50 in the assay on DND-41 cells (setting [1]) stood at 0.2 nM; with DND-41 cells (setting [2]), 0.29 nM; in the assay with DND-41 cells (setting [3]), 0.25 nM; in the assay with H1650 cells (setting [4]), 0.3 nM; in the assay with H1650 cells (setting [5]), 0.8 nM; with H1650 cells (setting [6]), 0.55 nM. The IC50 in the assay on ALL-SIL cells (setting [8]) and in the assay with ALL-SIL cells (setting [9]) was 0.01 nM throughout. Besides, the “ALLSIL CTG 72 h IC50 nM n1” value with ALL-SIL cells (experiment n1) is recorded as “<Cmin”.
For the compound `CCN(C)CC#Cc1ccc(OCCCc2sc(N3CCCc4c3nnc(Nc3nc5ccccc5s3)c4C)nc2C(=O)O)c(F)c1` [P13, 2-[3-(1,3-Benzothiazol-2-ylamino)-4-methyl-6,7-dihydro-5H-pyrido[2,3-c]pyridazin-8-yl]-5-[3-[4-[3-[ethyl(methyl)amino]prop-1-ynyl]-2-fluoro-phenoxy]propyl]thiazole-4-carboxylic acid], the concentration for half-maximal inhibition (IC50) in the assay on DND-41 cells (setting [1]) amounted to 11.8 nM; with DND-41 cells (setting [2]), 12.1 nM; with DND-41 cells (setting [3]), 11.9 nM; in the assay with H1650 cells (setting [4]), 1.8 nM; with H1650 cells (setting [5]) it was 3 nM; in the assay with H1650 cells (setting [6]) it was 2.4 nM. The values for the IC50 in the assay on ALL-SIL cells (setting [7]), with ALL-SIL cells (setting [8]) and in the assay with ALL-SIL cells (setting [9]) were 2.6 nM, 1.44 nM and 2.02 nM, respectively.
In the case of `CNCC#Cc1ccc(OCCCc2sc(N(CCCC(O)CO)c3cc(C)c(Nc4nc5ccccc5s4)nn3)nc2C(=O)O)c(F)c1` (stereo not drawn) [P46, 2-[[6-(1,3-Benzothiazol-2-ylamino)-5-methyl-pyridazin-3-yl]-(4,5-dihydroxypentyl)amino]-5-[3-[2-fluoro-4-[3-(methylamino)prop-1-ynyl]phenoxy]propyl]thiazole-4-carboxylic acid], the IC50 amounted to 212 nM in the assay with DND-41 cells (setting [1]); 220 nM in the assay with DND-41 cells (setting [2]); 216 nM in the assay with DND-41 cells (setting [3]); 62.2 nM in the assay on ALL-SIL cells (setting [7]); 50 nM with ALL-SIL cells (setting [8]); 56.1 nM in the assay with ALL-SIL cells (setting [9]).
Consider `Cc1c(Nc2nc3ccccc3s2)nnc2c1CCCN2c1nc(C(=O)O)c(CCCOc2ccc(C#CCN3CCCC3)cc2F)s1` [P9, 2-[3-(1,3-Benzothiazol-2-ylamino)-4-methyl-6,7-dihydro-5H-pyrido[2,3-c]pyridazin-8-yl]-5-[3-[2-fluoro-4-(3-pyrrolidin-1-ylprop-1-ynyl)phenoxy]propyl]thiazole-4-carboxylic acid], for which the concentration for half-maximal inhibition (IC50) with DND-41 cells (setting [1]) was determined as 21.8 nM; in the assay with DND-41 cells (setting [2]) it was 19.3 nM; in the assay on DND-41 cells (setting [3]), 20.6 nM; in the assay with H1650 cells (setting [4]), 0.7 nM; in the assay with H1650 cells (setting [5]), 1.4 nM; with H1650 cells (setting [6]) it was 1.05 nM. Also, the figures for the IC50 in the assay with ALL-SIL cells (setting [7]), with ALL-SIL cells (setting [8]) and with ALL-SIL cells (setting [9]) were 3.31 nM, 1.1 nM and 2.21 nM, respectively.
`Cc1c(Nc2nc3ccccc3s2)nnc2c1CCCN2c1ccc(-c2cnn(CC34CC5(C)CC(C)(C3)CC(OCCN3CCN(C)CC3)(C5)C4)c2C)c(C(=O)O)n1` [P20, 6-[3-(1,3-benzothiazol-2-ylamino)-4-methyl-6,7-dihydro-5H-pyrido[2,3-c]pyridazin-8-yl]-3-[1-[[3,5-dimethyl-7-[2-(4-methylpiperazin-1-yl)ethoxy]-1-adamantyl]methyl]-5-methyl-pyrazol-4-yl]pyridine-2-carboxylic acid]: the IC50 came to 0.38 nM in the assay with DND-41 cells (setting [1]); 0.24 nM in the assay with DND-41 cells (setting [2]); 0.31 nM with DND-41 cells (setting [3]); 0.36 nM in the assay on H1650 cells (setting [4]); 0.5 nM in the assay on H1650 cells (setting [5]); 0.43 nM in the assay on H1650 cells (setting [6]). Also, the IC50 was determined as 0.02 nM in the assay on ALL-SIL cells (setting [7]), 0.08 nM in the assay with ALL-SIL cells (setting [8]) and 0.05 nM in the assay with ALL-SIL cells (setting [9]).
